Data: PMC12748989 (Nature Communications, 2025)

Columns and labels:
[1] = test system: MDA-MB-231 cells
[2] = test system: PBMC; conditions: 12.5 µM

| Structure (SMILES) | Average (percentage cell inhibition), Dmastoparan MDA-MB231 12.5uM [1] [%] | Average (percentage cell inhibition), Mastoparan PBMC [2] [%] | Average 6.5uM [1] [%] |
| --- | --- | --- | --- |
| CC[C@H](C)[C@H](N)C(=O)N[C@@H](CC(N)=O)C(=O)N[C@@H](CCCCN)C(=O)N[C@@H](CCCCN)C(=O)N[C@@H](C)C(=O)N[C@@H](CC(C)C)C(=O)N[C@@H](C)C(=O)N[C@@H](C)C(=O)N[C@@H](CC(C)C)C(=O)N[C@@H](C)C(=O)N[C@@H](CCCCN)C(=O)N[C@@H](CCCCN)C(=O)N[C@H](C(=O)N[C@@H](CC(C)C)C(N)=O)[C@@H](C)CC [K3] | 21.542 | -9.841 | – |
| CC[C@H](C)[C@H](N)C(=O)N[C@@H](CC(N)=O)C(=O)N[C@@H](CC(C)C)C(=O)N[C@@H](CCCCN)C(=O)N[C@@H](C)C(=O)N[C@H](C(=O)N[C@@H](C)C(=O)N[C@@H](C)C(=O)N[C@@H](CC(C)C)C(=O)N[C@@H](C)C(=O)N[C@@H](CCCCN)C(=O)N[C@@H](CCCCN)C(=O)N[C@H](C(=O)N[C@@H](CC(C)C)C(N)=O)[C@@H](C)CC)C(C)C [V6] | 10.4144 | -4.76 | – |
| CC[C@H](C)[C@H](N)C(=O)N[C@@H](CC(N)=O)C(=O)N[C@@H](CC(C)C)C(=O)N[C@@H](CCCCN)C(=O)N[C@@H](C)C(=O)N[C@@H](CC(C)C)C(=O)N[C@@H](C)C(=O)N[C@@H](C)C(=O)N[C@@H](CC(C)C)C(=O)N[C@@H](C)C(=O)N[C@@H](CCCCN)C(=O)N[C@@H](CCCCN)C(=O)N[C@@H](Cc1ccc(O)cc1)C(=O)N[C@@H](CC(C)C)C(N)=O [Y13] | 39.3488 | 16.5864 | – |
| CC[C@H](C)[C@H](N)C(=O)N[C@@H](CC(N)=O)C(=O)N[C@@H](CC(C)C)C(=O)N[C@@H](CCCCN)C(=O)N[C@@H](C)C(=O)N[C@@H](CC(C)C)C(=O)N[C@@H](C)C(=O)N[C@@H](C)C(=O)N[C@@H](CC(C)C)C(=O)N[C@@H](C)C(=O)N[C@@H](Cc1c[nH]cn1)C(=O)N[C@@H](CCCCN)C(=O)N[C@H](C(=O)N[C@@H](CC(C)C)C(N)=O)[C@@H](C)CC [H11] | 27.1728 | -0.6179 | – |
| CC[C@H](C)[C@H](N)C(=O)N[C@@H](CC(N)=O)C(=O)N[C@@H](CC(C)C)C(=O)N[C@@H](CCCCN)C(=O)N[C@@H](C)C(=O)N[C@@H](CC(C)C)C(=O)N[C@@H](C)C(=O)N[C@@H](C)C(=O)N[C@@H](CC(C)C)C(=O)N[C@@H](C)C(=O)N1CCC[C@H]1C(=O)N[C@@H](CCCCN)C(=O)N[C@H](C(=O)N[C@@H](CC(C)C)C(N)=O)[C@@H](C)CC [P11] | -0.07814 | -9.695 | – |
| CC[C@H](C)[C@H](N)C(=O)N[C@@H](CC(N)=O)C(=O)N[C@@H](CC(C)C)C(=O)N[C@@H](CCCCN)C(=O)N[C@@H](C)C(=O)N[C@@H](CC(C)C)C(=O)N[C@@H](C)C(=O)N[C@@H](C)C(=O)N[C@@H](CC(C)C)C(=O)N[C@@H](CCCNC(=N)N)C(=O)N[C@@H](CCCCN)C(=O)N[C@@H](CCCCN)C(=O)N[C@H](C(=O)N[C@@H](CC(C)C)C(N)=O)[C@@H](C)CC [R10] | 11.5132 | 5.821 | – |
| CC[C@H](C)[C@H](N)C(=O)N[C@@H](CC(N)=O)C(=O)N[C@@H](CC(C)C)C(=O)N[C@@H](CCCCN)C(=O)N[C@@H](C)C(=O)N[C@@H](CC(C)C)C(=O)N[C@@H](C)C(=O)N[C@@H](C)C(=O)N[C@@H](CC(C)C)C(=O)N[C@@H](C)C(=O)N[C@@H](CCCCN)C(=O)N[C@@H](CCCCN)C(=O)N[C@H](C(=O)N[C@@H](CC(C)C)C(N)=O)C(C)C [V13] | 38.0334 | 11.5837 | – |
| CC[C@H](C)[C@H](N)C(=O)N[C@@H](CC(N)=O)C(=O)N[C@@H](CC(C)C)C(=O)N[C@@H](CCCCN)C(=O)N[C@@H](C)C(=O)N[C@@H](CC(C)C)C(=O)N[C@@H](C)C(=O)N[C@@H](C)C(=O)N[C@@H](CC(C)C)C(=O)N[C@@H](C)C(=O)N[C@@H](CCCCN)C(=O)N[C@@H](CCCCN)C(=O)N[C@@H](CC(N)=O)C(=O)N[C@@H](CC(C)C)C(N)=O [N13] | 29.0846 | 7.072 | – |
| CC[C@H](C)[C@H](N)C(=O)N[C@@H](CC(N)=O)C(=O)N[C@@H](CC(C)C)C(=O)N[C@@H](CCCCN)C(=O)N[C@@H](C)C(=O)N[C@@H](CC(C)C)C(=O)N[C@@H](C)C(=O)N[C@@H](CO)C(=O)N[C@@H](CC(C)C)C(=O)N[C@@H](C)C(=O)N[C@@H](CCCCN)C(=O)N[C@@H](CCCCN)C(=O)N[C@H](C(=O)N[C@@H](CC(C)C)C(N)=O)[C@@H](C)CC [S8] | 32.8816 | -6.033 | – |
| CC[C@H](C)[C@H](NC(=O)[C@H](CCCCN)NC(=O)[C@H](CCCCN)NC(=O)[C@H](C)NC(=O)[C@H](CC(C)C)NC(=O)[C@H](C)NC(=O)[C@H](C)NC(=O)[C@H](CC(C)C)NC(=O)[C@H](C)NC(=O)[C@H](CCCCN)NC(=O)[C@H](CC(C)C)NC(=O)[C@H](CC(N)=O)NC(=O)[C@@H](N)CC(C)C)C(=O)N[C@@H](CC(C)C)C(N)=O [L1] | 57.5292 | 20.4049 | – |
| CC[C@H](C)[C@H](N)C(=O)N[C@@H](CC(N)=O)C(=O)N[C@@H](CC(C)C)C(=O)N[C@@H](CCCCN)C(=O)N[C@@H](Cc1c[nH]c2ccccc12)C(=O)N[C@@H](CC(C)C)C(=O)N[C@@H](C)C(=O)N[C@@H](C)C(=O)N[C@@H](CC(C)C)C(=O)N[C@@H](C)C(=O)N[C@@H](CCCCN)C(=O)N[C@@H](CCCCN)C(=O)N[C@H](C(=O)N[C@@H](CC(C)C)C(N)=O)[C@@H](C)CC [W5] | 97.3063 | 88.7179 | 75.0546 |
| CC[C@H](C)[C@H](N)C(=O)N[C@@H](CC(N)=O)C(=O)N[C@@H](CC(C)C)C(=O)N[C@@H](CCCCN)C(=O)N[C@@H](C)C(=O)N[C@@H](CC(C)C)C(=O)N[C@@H](C)C(=O)N[C@@H](C)C(=O)N[C@@H](CO)C(=O)N[C@@H](C)C(=O)N[C@@H](CCCCN)C(=O)N[C@@H](CCCCN)C(=O)N[C@H](C(=O)N[C@@H](CC(C)C)C(N)=O)[C@@H](C)CC [S9] | 27.2293 | -4.8979 | – |
| CC[C@H](C)[C@H](N)C(=O)N[C@@H](CC(N)=O)C(=O)N[C@@H](CC(C)C)C(=O)N[C@@H](CCCCN)C(=O)N[C@@H](C)C(=O)N[C@@H](Cc1ccc(O)cc1)C(=O)N[C@@H](C)C(=O)N[C@@H](C)C(=O)N[C@@H](CC(C)C)C(=O)N[C@@H](C)C(=O)N[C@@H](CCCCN)C(=O)N[C@@H](CCCCN)C(=O)N[C@H](C(=O)N[C@@H](CC(C)C)C(N)=O)[C@@H](C)CC [Y6] | 22.8055 | -4.904 | – |
| CC[C@H](C)[C@H](N)C(=O)N[C@@H](CC(N)=O)C(=O)N[C@@H](CC(C)C)C(=O)N[C@@H](CCCCN)C(=O)N[C@@H](C)C(=O)N[C@@H](CC(C)C)C(=O)N[C@@H](C)C(=O)N[C@@H](C)C(=O)N[C@@H](CC(C)C)C(=O)N[C@@H](C)C(=O)N[C@@H](CCCCN)C(=O)N[C@@H](CCCCN)C(=O)N[C@H](C(=O)N[C@H](C(N)=O)C(C)C)[C@@H](C)CC [V14] | 42.849 | 3.082 | – |
| CC[C@H](C)[C@H](N)C(=O)N[C@@H](CC(N)=O)C(=O)N[C@@H](CC(C)C)C(=O)N[C@@H](CCCCN)C(=O)N[C@@H](C)C(=O)N[C@@H](CC(C)C)C(=O)N[C@@H](C)C(=O)N[C@@H](CC(N)=O)C(=O)N[C@@H](CC(C)C)C(=O)N[C@@H](C)C(=O)N[C@@H](CCCCN)C(=O)N[C@@H](CCCCN)C(=O)N[C@H](C(=O)N[C@@H](CC(C)C)C(N)=O)[C@@H](C)CC [N8] | 46.3177 | 16.8851 | – |
| CC[C@H](C)[C@H](N)C(=O)N[C@@H](CC(N)=O)C(=O)N[C@@H](CC(C)C)C(=O)NCC(=O)N[C@@H](C)C(=O)N[C@@H](CC(C)C)C(=O)N[C@@H](C)C(=O)N[C@@H](C)C(=O)N[C@@H](CC(C)C)C(=O)N[C@@H](C)C(=O)N[C@@H](CCCCN)C(=O)N[C@@H](CCCCN)C(=O)N[C@H](C(=O)N[C@@H](CC(C)C)C(N)=O)[C@@H](C)CC [G4] | 39.0682 | 15.8704 | – |
| CC[C@H](C)[C@H](N)C(=O)N[C@@H](CC(N)=O)C(=O)N[C@@H](CC(C)C)C(=O)N[C@@H](CC(N)=O)C(=O)N[C@@H](C)C(=O)N[C@@H](CC(C)C)C(=O)N[C@@H](C)C(=O)N[C@@H](C)C(=O)N[C@@H](CC(C)C)C(=O)N[C@@H](C)C(=O)N[C@@H](CCCCN)C(=O)N[C@@H](CCCCN)C(=O)N[C@H](C(=O)N[C@@H](CC(C)C)C(N)=O)[C@@H](C)CC [N4] | 50.001 | 12.5207 | – |
| CC[C@H](C)[C@H](N)C(=O)N[C@@H](CC(N)=O)C(=O)N[C@@H](CC(C)C)C(=O)N[C@@H](CCCCN)C(=O)N[C@@H](C)C(=O)N[C@@H](CC(C)C)C(=O)N[C@@H](C)C(=O)N[C@@H](C)C(=O)N[C@@H](CC(C)C)C(=O)N[C@@H](C)C(=O)N[C@@H](CCCCN)C(=O)N[C@@H](CCCCN)C(=O)N[C@H](C(=O)N[C@@H](CCC(N)=O)C(N)=O)[C@@H](C)CC [Q14] | 0.3995 | 1.109 | – |
